This note sets out measurements from patent EP0596284A2, “Antimycotic cosmetic and dermatological compositions containing fatty acid esters” (Beiersdorf Aktiengesellschaft, priority 1992, dated 1994).

The assay relates to Pityrosporum ovale. The assay can be described thus: Agar diffusion test, inhibition zones around wells on selective agar plates. The settings on record: for zone of inhibition at 0.5 % / zone of inhibition at 1 % / zone of inhibition at 5 % / zone of inhibition at 10 %: Malassezia furfur, 72 h, read-out: mittlerer Hemmhof-Durchmesser. It counts as cell-based. As for the experimental part: Testlösungen: • TY-Medium 10 g Trypton + 5 g Hefeextrakt + 10 g NaCI, aufgelöst in 1000 ml H20, gepuffert auf pH 7,4 , autoklaviert. • Testverbindung 1: Hexyllaurat • Testverbindung 2: Isopropylstearat • Testverbindung 3: Caprylsäure-/Caprinsäure-Triglycerid • Testverbindung 4: Glyceryllaurat
Pityrosporum ovale von drei Patienten mit Pityrosporum-Follikulitis, Pityriasis versicolor oder seborrhoischem Ekzem wurde in einer Mischung aus 50 % TY-Medium, 30 % Olivenöl und 20 % Tween 80 suspendiert. Die drei verschiedenen Hefestämme wurden in drei parallelen Ansätzen auf einer Selektivagarplatte für pathogene Pilze (Merck AG, Darmstadt) gleichmäßig ausgespatelt. Mit Hilfe steriler Korkbohrer wurden in jede Platte mehrere kreisrunde Vertiefungen gestanzt, in die Vertiefungen mit einem Durchmesser von 5 mm wurden jeweils 25 ul der Testlösungen gegeben. Die Testlösungen stellten 0,5 %-ige, 1,0 %- ige, 2,5 %-ige, 5,0 %-ige und 10,0 %-ige Lösungen der Testsubstanzen in Ethanol dar.
Nach dreistündiger Inkubation bei 37 C wurde das verdunstete Lösungsmittel durch je 25 ul Jojobaöl ersetzt und die Platten anschließend unter Beibehaltung der Wachstumsbedingungen drei Tage inkubiert. Während dieser Zeit diffundierten die Testsubstanzen in den die Vertiefungen umgebenden Nährboden.
Antimycotisch wirksame Testverbindungen zeigten nach dreitägiger Inkubation einen deutlichen konzentrischen Hemmhof um die Vertiefungen. Die Größe dieser Hemmhöfe, wiedergegeben in Tabelle 1, ist bei vergleichbarer Substanzkonzentration ein Maß für die antimycotische Wirksamkeit der Testverbindungen.

Setting [1] is: Konz. 0,5 % in Ethanol, 25 ul per 5 mm well, three patient strains, three days at 37 C.
[2] abbreviates: Konz. 1,0 % in Ethanol, 25 ul per 5 mm well, three patient strains, three days at 37 C.
[3] abbreviates: Konz. 5,0 % in Ethanol, 25 ul per 5 mm well, three patient strains, three days at 37 C.
Where [4] appears, read: Konz. 10,0 % in Ethanol, 25 ul per 5 mm well, three patient strains, three days at 37 C.

Like-named read-outs stand apart in the source and are kept apart here.

As to `CCCCCCCCCCCC(=O)OCC(O)CO` (stereo not shown) [Testlösung 4, Glyceryllaurat], the zone of inhibition at 0.5 % amounted to 11 mm, the zone of inhibition at 1 % was determined as 14 mm, the zone of inhibition at 5 % was 16.5 mm and the zone of inhibition at 10 % is 16.5 mm.
In the case of `CCCCCCCCCCCCCCCCCC(=O)OC(C)C` [Testlösung 2, Isopropylstearat], under setting [1], the zone of inhibition at 0.5 % stood at 10.7 mm. The zone of inhibition at 1 % under setting [2] came to 14 mm. Moreover, the zone of inhibition at 5 % under setting [3] turned out to be 18.7 mm. The zone of inhibition at 10 % under setting [4] is 20.7 mm.
In the same order, the values of `CCCCCCCCCCCC(=O)OCCCCCC` [Testlösung 1, Hexyllaurat] are 14 mm, 15.5 mm, 18 mm and 20.7 mm.
As for “Caprylsäure-/Caprinsäure-Triglycerid [Testlösung 3]”, the “mittlerer Hemmhof-Durchmesser” value runs as follows: under setting [1], 9,0 mm; under setting [2], 9,0 mm; under setting [3], 15,0 mm; under setting [4], 17,3 mm.
